Test system: T-tropic HIV
Experiment: not given
Conditions: patients that are dual tropic or with only the T-tropic form of the virus; cited from earlier work

In the case of `c1cc(CN2CCCNCCNCCCNCC2)ccc1CN1CCCNCCNCCCNCC1` [AMD-3100], the “T-tropic HIV viral load” value is listed as “significantly reduce”.

Test system: HIV-1
Experiment: HIV infectivity assay (Table 2, strain not given)
Format: cell-based
Conditions: Human immunodeficiency virus 1, read-out: Activity Level
Summary of the method: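 HOS cells expressing hCXCR4/hCCR5/hCD4 with HIV-LTR-luciferase, pre-treated 1 h with compound at 37 °C, then infected with HIV-1 Ba-L or IIIB (~2 million RLU/well) for 96 h. Infection read by Steady-Glo luciferase; cytotoxicity in uninfected cultures by CellTiter-Glo.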

First: c1cnc2c(c1)CC[C@@H]1CCCN(Cc3cn4c(NC5CCNC5)cccc4n3)[C@H]21 (stereo partly drawn) [Example 109, 2-[(4aR,10bS)-3,4,4a,5,6,10b-hexahydro-1,10-phenanthrolin-1(2H)-ylmethyl]-N-3-pyrrolidinylimidazo[1,2-a]pyridin-5-amine]
Second: c1cnc2c(c1)CC[C@@H]1CCCN(Cc3cn4c(N[C@H]5CCCNC5)cccc4n3)[C@H]21 [Example 112, 2-[(4aR,10bS)-3,4,4a,5,6,10b-hexahydro-1,10-phenanthrolin-1(2H)-ylmethyl]-N-[(3S)-3-piperidinyl]imidazo[1,2-a]pyridin-5-amine]
The IC50 of the first is higher: 100 to 500 nM for the first, < 100 nM for the second. The second is the more potent here.

Compared with `N[C@@H]1CCN(c2cccc3nc(CN4CCC[C@H]5CCc6cccnc6[C@H]54)cn23)C1` [Example 110, (3R)-1-{2-[(4aR,10bS)-3,4,4a,5,6,10b-hexahydro-1,10-phenanthrolin-1(2H)-ylmethyl]imidazo[1,2-a]pyridin-5-yl}-3-pyrrolidinamine], `C[C@H]1CCCN1c1cccc2nc(CN3CCC[C@H]4CCc5cccnc5[C@H]43)cn12` [Example 111, (4aR,10bS)-1-({5-[(2S)-2-methyl-1-pyrrolidinyl]imidazo[1,2-a]pyridin-2-yl}methyl)-1,2,3,4,4a,5,6,10b-octahydro-1,10-phenanthroline] is higher in IC50: < 100 nM for the first, 100 to 500 nM for the second.

`c1cnc2c(c1)CC[C@@H]1CCCN(Cc3cn4c(NC[C@@H]5CCCNC5)cccc4n3)[C@H]21` [Example 113, 2-[(4aR,10bS)-3,4,4a,5,6,10b-hexahydro-1,10-phenanthrolin-1(2H)-ylmethyl]-N-[(3R)-3-piperidinylmethyl]imidazo[1,2-a]pyridin-5-amine] and `CN1CCN(c2cccc3nc(CN4CCC[C@@H]5CCCc6cccnc6[C@H]54)cn23)CC1` [Example 123, (4aS,11bS)-1-{[5-(4-methyl-1-piperazinyl)imidazo[1,2-a]pyridin-2-yl]methyl}-2,3,4,4a,5,6,7,11b-octahydro-1H-pyrido[3′,2′:6,7]cyclohepta[1,2-b]pyridine] cannot be ordered by IC50: < 100 nM for the first, < 100 nM for the second.

`CN1CCN(c2cccc3nc(CN4CCC[C@H]5CCCc6cccnc6[C@H]54)cn23)CC1` [Example 124, (4aR,11bS)-1-{[5-(4-methyl-1-piperazinyl)imidazo[1,2-a]pyridin-2-yl]methyl}-2,3,4,4a,5,6,7,11b-octahydro-1H-pyrido[3′,2′:6,7]cyclohepta[1,2-b]pyridine] and `CN1CCN(c2cccc3nc(CN4CCC[C@H]5CCc6cccnc6[C@H]54)n(C)c23)CC1` [Example 134, (4aR,10bS)-1-{[1-methyl-7-(4-methyl-1-piperazinyl)-1H-benzimidazol-2-yl]methyl}-1,2,3,4,4a,5,6,10b-octahydro-1,10-phenanthroline] cannot be ordered by IC50: < 100 nM for the first, < 100 nM for the second.

Reference: patent US20090093454A1, “Chemical Compounds” (priority 2005, published 2009)
